The results in this text go back to article PMC2276102, “Phage Display Based Cloning of Proteins Interacting with the Cytoplasmic Tail of Membrane Immunoglobulins” (Developmental Immunology, 2002).

The subject of experiment [1] is cHPK1 (87 amino acids of the C-terminal part of HPK1) displayed on phage. Description: Surface plasmon resonance analysis (BIACORE), HIS-tagged Ig-tail peptides on NTA sensor chip, cHPK1 phagemids injected. Type of experiment: binding, murine. The settings on record: for decrease of binding capacity / relative binding affinity for cHPK1 compared to the wild type IgE tail: after the elution step, IgE measurement set to 100%; for Elution after 100 s, Relative RUs: binding of cHPK1 phage (10^9 cfu in TBS) to immobilised HIS-tagged Ig-tail, value remaining after 100 s of elution; for Injection after 60 s, Relative RUs: binding of cHPK1 phage (10^9 cfu in TBS, injected 60 s) to immobilised HIS-tagged Ig-tail, 400 (±25) RUs peptide coupled, value taken 60 s after injection; for Elution after 100 s, %: relative RUs after 100 s elution, IgE values were set to 100%. The text has this: Phage Display Based Cloning of Proteins Interacting with the Cytoplasmic Tail of Membrane Immunoglobulins* ROLAND GEISBERGERa , MARTIN PRLICa , GERTRUDE ACHATZ-STRAUSSBERGERa , IRIS OBERNDORFERa , ELKE LUGERb , MARINUS LAMERSc , RETO CRAMERId , ULRICH APPENZELLERd , JURGEN WIENANDSe , MICHAEL BREITENBACHa , FATIMA FERREIRAa and GERNOT ACHATZa, a Department of Genetics and General Biology, Hellbrunnerstrae 34, A-5020 Salzburg, Austria; b DRFZ, Schumannstrasse 21/22, D-10117, Germany; c MPI for Immunobiology, Stubeweg 51, D-79108 Freiburg, Germany; d SIAF, Obere Strasse 22, CH-7270 Davos, Switzerland; e Department of Biochemistry I, Universitaetsstrasse 25, D-33615 Bielefeld, Germany. The reduced quantity and quality of serum immunoglobulins (sIgs) in mutant mice expressing truncated cytoplasmic tails of IgE and IgG1 indicate an active role for the cytoplasmic domains of mIgG1 and mIgE. We used phage display technology to identify candidate proteins able to interact with the cytoplasmic tail of mIgE. […] The interaction of HPK1 with the cytoplasmic domains of membrane immunoglobulins indicate an active role of the tails as part of an isotype specific signal transduction, independent from the Iga/Igb heterodimers, and may represent a missing link to upstream regulatory elements of HPK1 activation. Keywords: Antigen receptor; Cytoplasmic tail; HPK1; Phage display; Surface plasmon resonance INTRODUCTION The B cell antigen receptor (Vitetta et al., 1980; Reth, 1992) plays a central role in almost all processes along the developmental pathway of B cells, i.e. the generation, maturation, survival and activation of B cells. B cell antigen receptors (BCR) exist as a complex of membrane immunoglobulins (mIgs) and at least two other transmem- brane polypeptides, called Ig-a and Ig-b, which connect the antigen receptor to the tyrosine phosphorylation pathways in the cell. In this complex, mIgs serve as isotype specific antigen receptors on the surface of B lymphocytes. All isotypes of mIgs can form a complex with Ig-a and Ig-b (Venkitaraman et al., 1991) indicating an involvement of all isotypes in the signal transduction pathway. The earliest detectable biochemical event that follows BCR-aggregation is increased activity of protein tyrosine kinases (PTKs) of the Syk- and Src-family, which phosphorylate distinct tyrosine residues within conserved sequences present on the cytoplasmic portions of Ig-a and Ig-b (Reth, 1992). Phosphorylation of Ig-a and Ig-b occurs on the tyrosine residues of immuno receptor tyrosine-based activation motif (ITAM) and on the non-ITAM tyrosine 204 of Ig-a (Engels et al., 2001). Once phosphorylated, ITAMs provide binding sites for SRC homology 2 (SH2) domains of the Src and Syk PTKs and the adaptor protein SLP-65 (Engels et al., 2001), thus initiating several signaling pathways, the most important of which are the PLC-g, the Ras and the PI3-kinase pathways (Reth and Wienands, 1997; Kurosaki, 1999). Various external stimuli such as cytokine binding, interaction with other cells as well as stress factors including osmotic shock, heat or ionizing irradiation can influence the signaling cascade initiated by BCR engagement and they can contribute to differential alteration of the pattern of gene expression. Obviously, between Ig subclasses, there should be no differences in the transduction of signals regulating the central features of the immune system (Nussenzweig, 1997) such as the control of allelic exclusion, early cellular transitions and in the function of the membrane- bound immunoglobulin as a receptor for antigen capture ISSN 1044-6672 print q 2002 Taylor & Francis Ltd DOI: 10.1080/1044667031000137584 *Presented at the Proceedings of the 4th Germinal Center Conference, Groningen, The Netherlands, June 2002. Corresponding author. Address: Institut fur Genetik, Hellbrunnerstrae 34, A-5020 Salzburg, Austria. Tel.: 43-662-8044-5764. Fax: 43-662- 8044-144. […]
On the technique in general: SPR reads the build-up and loss of mass on a sensor chip optically.

Experiment [2] has the same test system. Description: Surface plasmon resonance analysis (BIACORE), IgE tail peptide covalently coupled to CM5 sensor chip, cHPK1 phagemids injected. The format is binding, murine. The settings on record: CM5 sensor chip with covalently coupled IgE tail peptide (1683 RUs), random peptide as reference channel; 1 x 10^9 cHPK1 displaying phages injected over 200 s, washing with TBS. From the text: Phage Display Based Cloning of Proteins Interacting with the Cytoplasmic Tail of Membrane Immunoglobulins* ROLAND GEISBERGERa , MARTIN PRLICa , GERTRUDE ACHATZ-STRAUSSBERGERa , IRIS OBERNDORFERa , ELKE LUGERb , MARINUS LAMERSc , RETO CRAMERId , ULRICH APPENZELLERd , JURGEN WIENANDSe , MICHAEL BREITENBACHa , FATIMA FERREIRAa and GERNOT ACHATZa, a Department of Genetics and General Biology, Hellbrunnerstrae 34, A-5020 Salzburg, Austria; b DRFZ, Schumannstrasse 21/22, D-10117, Germany; c MPI for Immunobiology, Stubeweg 51, D-79108 Freiburg, Germany; d SIAF, Obere Strasse 22, CH-7270 Davos, Switzerland; e Department of Biochemistry I, Universitaetsstrasse 25, D-33615 Bielefeld, Germany. The reduced quantity and quality of serum immunoglobulins (sIgs) in mutant mice expressing truncated cytoplasmic tails of IgE and IgG1 indicate an active role for the cytoplasmic domains of mIgG1 and mIgE. We used phage display technology to identify candidate proteins able to interact with the cytoplasmic tail of mIgE. […] The interaction of HPK1 with the cytoplasmic domains of membrane immunoglobulins indicate an active role of the tails as part of an isotype specific signal transduction, independent from the Iga/Igb heterodimers, and may represent a missing link to upstream regulatory elements of HPK1 activation. […]

Experiment [3] has as its target HIS-tagged cytoplasmic tail of membrane IgE (28 amino acids) (mouse). In words: SPR; BIACORE CM5 chip; IgE-tail peptide covalently coupled to Fc1 (1683 RUs), random peptide (1704 RUs) on Fc2 as reference; 1 x 10^9 cfu phagemids in TBS injected, then washing with TBS; relative response.
Experiment [4] addresses HIS-tagged cytoplasmic tail of IgM (KVK). In words: SPR; BIACORE NTA sensor chip; HIS-tagged Ig-tail peptides (150 nM in 0.01 M Hepes, 0.15 M NaCl, 50 mM EDTA, 0.005% surfactant P20) captured via the HIS-tag, 400 (+/-25) RUs each; 10^9 cfu cHPK1 phage in TBS injected 1 min, 100 s elution; relative RUs, IgE set to 100%.
In experiment [5] the target is HIS-tagged cytoplasmic tail of IgG2b. The description is as above.
Experiment [6] addresses HIS-tagged modified IgE cytoplasmic tail lacking the four amino acids T-F-Q-D (IgEDTFQD) (mouse). The experiment is described as above.
The target in experiment [7] is HIS-tagged cytoplasmic tail of membrane IgE (28 amino acids) (mouse). Described as above.
For experiment [8], the target named is HIS-tagged cytoplasmic tail of IgG1 (mouse). The experiment is described as above.
In experiment [9] the target is HIS-tagged cytoplasmic tail of IgG2a. The description is as above.
Experiment [10] deals with HIS-tagged cytoplasmic tail of IgG3. The description is as above.
The target of experiment [11] is HIS-tag deficient random peptide. The experiment is described as above.

With “(6 H) KVKWIFSSVVELKQKISPDYRNMI- GQGA [IgG2b, HIS-tagged synthetic cytoplasmic tail of IgG2b]”, in experiment [1], the “decrease of binding capacity / relative binding affinity for cHPK1 compared to the wild type IgE tail” value is “about 60%”; the “Elution after 100 s, Relative RUs” value was determined as 72 RUs; the “Injection after 60 s, Relative RUs” value turned out to be 276 RUs; the “Elution after 100 s, %” value is listed as 41%.

On to “(6 H) KVKWIFSSVVELKQTISPDYRNMI- GQGA [IgG2a, HIS-tagged synthetic cytoplasmic tail of IgG2a]”, for which, in experiment [1], the “decrease of binding capacity / relative binding affinity for cHPK1 compared to the wild type IgE tail” value is listed as “about 60%”; the “Elution after 100 s, Relative RUs” value is on record as 68 RUs; the “Injection after 60 s, Relative RUs” value amounted to 284 RUs; the “Elution after 100 s, %” value is 38%.

For “(6 H) KVKWIFSSVVELKQTLVPEYKNMI- GQAP [IgG1, HIS-tagged synthetic cytoplasmic tail of IgG1]”, in experiment [1], the “Elution after 100 s, Relative RUs” value stood at 128 RUs; the “Injection after 60 s, Relative RUs” value is 819 RUs; the “Elution after 100 s, %” value came out at 72%.

For the substance “(6 H) KVKWIFSSVVQVKQTAIPDYRNMI- GQGA [IgG3, HIS-tagged synthetic cytoplasmic tail of IgG3]”, in experiment [1], the “Elution after 100 s, Relative RUs” value stood at 120 RUs; the “Injection after 60 s, Relative RUs” value was 744 RUs; the “Elution after 100 s, %” value was 67%.

On to “(6 H) KVKWVFSTPMQDTPQYA- NILQTRA [IgEDTFQD, HIS-tagged IgE cytoplasmic tail peptide lacking the TFQD amino acids]”, for which, in experiment [1], the “decrease of binding capacity / relative binding affinity for cHPK1 compared to the wild type IgE tail” value is recorded as 47%; the “Elution after 100 s, Relative RUs” value is given as 94 RUs; the “Injection after 60 s, Relative RUs” value is given as 563 RUs; the “Elution after 100 s, %” value was 53%.

Turning to “HHHHHHKVKWVFSTPMQDTPQTFQDYA- NILQTRA [IgE, HIS-tagged synthetic peptide of the 28 amino acid long cytoplasmic tail of mIgE]”, in experiment [1], the “Elution after 100 s, Relative RUs” value stood at 177 RUs and the “Injection after 60 s, Relative RUs” value was determined as 691 RUs. For the same substance, the “relative increase in affinity after the elution step” value in experiment [2] is 500 RUs.

On to “SPHRCRIHPRPSKTMPTSSRPGH- RCDASTH [Random peptide, HIS-tag deficient random peptide used as control, reference compound]”, for which, in experiment [1], the “Elution after 100 s, Relative RUs” value is about 0 RUs; the “Injection after 60 s, Relative RUs” value was determined as 310 RUs; the “Elution after 100 s, %” value is about 0%.

In turn, “cHPK1, 87 amino acids of the C-terminal part of murine hematopoietic progenitor kinase 1 (HPK1), displayed on phage (domain or fragment)” had a relative RUs after the elution step in [3] of 500 RUs. For the same substance, the relative RUs 60 s after injection in [4] came out at 617 RU; in experiment [5], 276 RU; in experiment [6] it was 563 RU; in experiment [7], 691 RU; in [8], 819 RU; in [9], 284 RU. The relative RUs 60 s after injection was 744 RU in experiment [10] and 310 RU in [11]. For the same substance, the % of the IgE tail's RUs after elution in experiment [5] was 41%; in experiment [6], 53%; in [8], 72%; in experiment [9] it was 38%; in [10], 67%. Further, the relative RUs 100 s after elution in experiment [5] came out at 72 RU; in [6] it was 94 RU; in [7] it was 177 RU; in experiment [8], 128 RU; in experiment [9], 68 RU; in [10] it was 120 RU.
